Values quoted from earlier work in patent US7442701B2, “Amino-heterocycles as VR-1 antagonists for treating pain” (Merck Sharp & Dohme Ltd., priority 2002, dated 2008).

Target: VR1 (Rattus norvegicus, UniProt O35433)
Conditions: Wahl et al., Mol. Pharmacol., 59:9, 2001

Sequence of VR1 (O35433 whole entry): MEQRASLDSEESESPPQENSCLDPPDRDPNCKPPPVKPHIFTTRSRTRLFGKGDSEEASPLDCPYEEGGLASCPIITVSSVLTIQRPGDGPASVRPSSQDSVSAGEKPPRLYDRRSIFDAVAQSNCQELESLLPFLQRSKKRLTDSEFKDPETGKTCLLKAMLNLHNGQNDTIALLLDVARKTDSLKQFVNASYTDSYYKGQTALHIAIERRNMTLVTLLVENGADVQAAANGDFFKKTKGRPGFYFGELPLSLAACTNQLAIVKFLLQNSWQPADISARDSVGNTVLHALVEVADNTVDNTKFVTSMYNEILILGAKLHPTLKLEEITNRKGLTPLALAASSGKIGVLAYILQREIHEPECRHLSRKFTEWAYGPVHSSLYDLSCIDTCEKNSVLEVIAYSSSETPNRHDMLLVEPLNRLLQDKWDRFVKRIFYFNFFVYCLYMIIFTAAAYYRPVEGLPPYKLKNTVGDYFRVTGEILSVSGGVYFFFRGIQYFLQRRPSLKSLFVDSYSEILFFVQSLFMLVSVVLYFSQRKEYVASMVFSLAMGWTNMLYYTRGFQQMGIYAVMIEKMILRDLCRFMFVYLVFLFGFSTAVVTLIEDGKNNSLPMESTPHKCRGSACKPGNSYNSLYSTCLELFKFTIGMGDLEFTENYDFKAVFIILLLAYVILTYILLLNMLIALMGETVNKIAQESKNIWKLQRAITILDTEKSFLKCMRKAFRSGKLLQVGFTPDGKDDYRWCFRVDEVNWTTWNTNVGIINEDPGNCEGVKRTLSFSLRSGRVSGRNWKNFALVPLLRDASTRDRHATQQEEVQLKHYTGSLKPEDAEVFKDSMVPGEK

SMILES: C=C(C)[C@]12C[C@@H](C)[C@@]34O[C@](Cc5ccccc5)(O[C@@H]1[C@@H]3C=C(COC(=O)Cc1cc(I)c(O)c(OC)c1)C[C@]1(O)C(=O)C(C)=C[C@@H]41)O2 [Iodo-resiniferatoxin]
- antagonist of VR1: nanomolar antagonist
